Assays:
Assay type in all cases: in vivo
Triticum aestivum [1] = test: Pre-emergence herbicidal test, TRZAW; set-up: key: A rating 0 indicates growth as untreated control; a rating 9 indicates death; conditions: 21 days after spraying
Method: (§1) To evaluate their herbicidal activity, compounds according to the invention are tested using a representative range of plants:
(§2) The pre-emergence tests involve spraying a liquid formulation of the compound onto the soil in which the seeds of the plant species mentioned above has recently been sown.
(§3) The soil used in the tests is a prepared horticultural loam. The formulations used in the tests are prepared from solutions of the test compounds in acetone containing 0.4% by weight of an alkylphenol/ethylene oxide condensate available under the trade mark TRITON X-155. […] In these tests untreated sown soil are used as controls.
(§4) The herbicidal effects of the test compounds are assessed visually twenty-one days after spraying the foliage and the soil and are recorded on a 0-9 scale. A rating 0 indicates growth as untreated control, a rating 9 indicates death. An increase of 1 unit on the linear scale approximates to a 10% increase in the level of effect.

Hordeum vulgare [2] = test: Pre-emergence herbicidal test, HORVW; set-up: key: A rating 0 indicates growth as untreated control; a rating 9 indicates death; conditions: 21 days after spraying
Method: as §1, §2, §3, §4

Zea mays [3] = test: Pre-emergence herbicidal test, ZEAMX; set-up: key to herbicidal effect (0-9 scale) ZEAMX / herbicidal rating ZEAMX: A rating 0 indicates growth as untreated control; a rating 9 indicates death; conditions: PRE, 21 days after spraying
Method: as §1, §2, §3, §4

Glycine max [4] = test: Pre-emergence herbicidal test, GLXMA; conditions: PRE, 21 days after spraying
Method: as §1, §2, §3, §4

Setaria viridis [5] = test: Pre-emergence herbicidal test, SETVI; set-up: key to herbicidal effect (0-9 scale) SETVI / herbicidal rating SETVI: A rating 0 indicates growth as untreated control; a rating 9 indicates death; conditions: PRE, 21 days after spraying
Method: as §1, §2, §3, §4

Echinochloa crus-galli [6] = test: Pre-emergence herbicidal test, ECHCG; set-up: key: A rating 0 indicates growth as untreated control; a rating 9 indicates death; conditions: 21 days after spraying
Method: as §1, §2, §3, §4

Alopecurus myosuroides [7] = test: Pre-emergence herbicidal test, ALOMY; set-up: key to herbicidal effect (0-9 scale) ALOMY / herbicidal rating ALOMY: A rating 0 indicates growth as untreated control; a rating 9 indicates death; conditions: PRE, 21 days after spraying
Method: as §1, §2, §3, §4

Ipomoea hederacea [8] = test: Pre-emergence herbicidal test, IPOHE; set-up: key: A rating 0 indicates growth as untreated control; a rating 9 indicates death; conditions: 21 days after spraying
Method: as §1, §2, §3, §4

Galium aparine [9] = test: Pre-emergence herbicidal test, GALAP; set-up: key to herbicidal effect (0-9 scale) GALAP / herbicidal rating GALAP: A rating 0 indicates growth as untreated control; a rating 9 indicates death; conditions: PRE, 21 days after spraying
Method: as §1, §2, §3, §4

Abutilon theophrasti [10] = test: Pre-emergence herbicidal test, ABUTH; set-up: key to herbicidal effect (0-9 scale) ABUTH / herbicidal rating ABUTH: A rating 0 indicates growth as untreated control; a rating 9 indicates death; conditions: PRE, 21 days after spraying
Method: as §1, §2, §3, §4

Stellaria media [11] = test: Pre-emergence herbicidal test, STEME; set-up: key to herbicidal effect (0-9 scale) STEME / herbicidal rating STEME: A rating 0 indicates growth as untreated control; a rating 9 indicates death; conditions: PRE, 21 days after spraying
Method: as §1, §2, §3, §4

Matricaria inodora [12] = test: Pre-emergence herbicidal test, MATIN; set-up: key to herbicidal effect (0-9 scale) MATIN / herbicidal rating MATIN: A rating 0 indicates growth as untreated control; a rating 9 indicates death; conditions: PRE, 21 days after spraying
Method: as §1, §2, §3, §4

Triticum aestivum [13] = test: Post-emergence herbicidal test, TRZAW; conditions: POST, 21 days after spraying
Method: as §1
(§5) […] After spraying, the plants are placed on greenhouse benches and are cared for in the usual manner, commensurate with conventional greenhouse practices.
as §4

Hordeum vulgare [14] = test: Post-emergence herbicidal test, HORVW; conditions: 21 days after spraying
Method: as §1
These acetone solutions are diluted with water and the resulting formulations applied at dosage levels equivalent to about 1000, 800, 400, 250 or 100 g/ha per hectare of test compound per pot. After spraying, the plants are placed on greenhouse benches and are cared for in the usual manner, commensurate with conventional greenhouse practices.
as §4

Zea mays [15] = test: Post-emergence herbicidal test, ZEAMX; set-up: key: A rating 0 indicates growth as untreated control; a rating 9 indicates death; conditions: 21 days after spraying
Method: as §1, §5, §4

Glycine max [16] = test: Post-emergence herbicidal test, GLXMA; set-up: key: A rating 0 indicates growth as untreated control; a rating 9 indicates death; conditions: 21 days after spraying
Method: as §1, §5, §4

Setaria viridis [17] = test: Post-emergence herbicidal test, SETVI; set-up: key to herbicidal effect (0-9 scale) SETVI / herbicidal rating SETVI: A rating 0 indicates growth as untreated control; a rating 9 indicates death; conditions: POST, 21 days after spraying
Method: as §1, §5, §4

Echinochloa crus-galli [18] = test: Post-emergence herbicidal test, ECHCG; set-up: key: A rating 0 indicates growth as untreated control; a rating 9 indicates death; conditions: 21 days after spraying
Method: as §1, §5, §4

Alopecurus myosuroides [19] = test: Post-emergence herbicidal test, ALOMY; set-up: key: A rating 0 indicates growth as untreated control; a rating 9 indicates death; conditions: 21 days after spraying
Method: as §1, §5, §4

Ipomoea hederacea [20] = test: Post-emergence herbicidal test, IPOHE; set-up: key to herbicidal effect (0-9 scale) IPOHE / herbicidal rating IPOHE: A rating 0 indicates growth as untreated control; a rating 9 indicates death; conditions: POST, 21 days after spraying
Method: as §1, §5, §4

Galium aparine [21] = test: Post-emergence herbicidal test, GALAP; set-up: key to herbicidal effect (0-9 scale) GALAP / herbicidal rating GALAP: A rating 0 indicates growth as untreated control; a rating 9 indicates death; conditions: POST, 21 days after spraying
Method: as §1, §5, §4

Abutilon theophrasti [22] = test: Post-emergence herbicidal test, ABUTH; set-up: key to herbicidal effect (0-9 scale) ABUTH / herbicidal rating ABUTH: A rating 0 indicates growth as untreated control; a rating 9 indicates death; conditions: POST, 21 days after spraying
Method: as §1, §5, §4

Stellaria media [23] = test: Post-emergence herbicidal test, STEME; set-up: key to herbicidal effect (0-9 scale) STEME / herbicidal rating STEME: A rating 0 indicates growth as untreated control; a rating 9 indicates death; conditions: POST, 21 days after spraying
Method: as §1, §5, §4

Matricaria inodora [24] = test: Post-emergence herbicidal test, MATIN; set-up: key to herbicidal effect (0-9 scale) MATIN / herbicidal rating MATIN: A rating 0 indicates growth as untreated control; a rating 9 indicates death; conditions: POST, 21 days after spraying
Method: as §1, §5, §4

How did the “herbicidal effect (0-9 scale) TRZAW” value (Triticum aestivum [1]; 250 g/ha) turn out when `COc1ccc2ccn(-n3c(=O)cc(C(F)(F)F)n(C)c3=O)c2c1` [Example 1, 6-Methoxy-1-(3-methyl-4-trifluoromethylpyrimidin-2,6-dion-1-yl)-indole] was run?
The value was 8.

And the “herbicidal effect (0-9 scale) TRZAW” value (Triticum aestivum [1]; 1000 g/ha)?
The value was 9.

What about the “herbicidal effect (0-9 scale) HORVW” value (Hordeum vulgare [2]; 250 g/ha) of the same compound?
The value was 7.

What about the “herbicidal effect (0-9 scale) HORVW” value (Hordeum vulgare [2]; 1000 g/ha) of the same compound?
The value was 9.

What about the “herbicidal effect (0-9 scale) ZEAMX” value (Zea mays [3]; 250 g/ha) of the same compound?
Its value is 8.

What about the “herbicidal effect (0-9 scale) ZEAMX” value (Zea mays [3]; 1000 g/ha) of the same compound?
Its value is 9.

And the “herbicidal effect (0-9 scale) GLXMA” value (Glycine max [4]; 250 g/ha)?
The value was 6.

And the “herbicidal effect (0-9 scale) GLXMA” value (Glycine max [4]; 1000 g/ha)?
Its value is 6.

What about the “herbicidal effect (0-9 scale) SETVI” value (Setaria viridis [5]; 250 g/ha) of the same compound?
Its value is 9.

What about the “herbicidal effect (0-9 scale) SETVI” value (Setaria viridis [5]; 1000 g/ha) of the same compound?
Its value is 9.

And the “herbicidal effect (0-9 scale) ECHCG” value (Echinochloa crus-galli [6]; 250 g/ha)?
The value was 9.

What about the “herbicidal effect (0-9 scale) ECHCG” value (Echinochloa crus-galli [6]; 1000 g/ha) of the same compound?
Its value is 9.

What about the “herbicidal effect (0-9 scale) ALOMY” value (Alopecurus myosuroides [7]; 250 g/ha) of the same compound?
Its value is 9.

What about the “herbicidal effect (0-9 scale) ALOMY” value (Alopecurus myosuroides [7]; 1000 g/ha) of the same compound?
Its value is 9.

What about the “herbicidal effect (0-9 scale) IPOHE” value (Ipomoea hederacea [8]; 250 g/ha) of the same compound?
The value was 8.

What about the “herbicidal effect (0-9 scale) IPOHE” value (Ipomoea hederacea [8]; 1000 g/ha) of the same compound?
Its value is 9.

And the “herbicidal effect (0-9 scale) GALAP” value (Galium aparine [9]; 250 g/ha)?
The value was 9.

And the “herbicidal effect (0-9 scale) GALAP” value (Galium aparine [9]; 1000 g/ha)?
Its value is 9.

What about the “herbicidal effect (0-9 scale) ABUTH” value (Abutilon theophrasti [10]; 250 g/ha) of the same compound?
The value was 9.

What about the “herbicidal effect (0-9 scale) ABUTH” value (Abutilon theophrasti [10]; 1000 g/ha) of the same compound?
The value was 9.

What about the “herbicidal effect (0-9 scale) STEME” value (Stellaria media [11]; 250 g/ha) of the same compound?
The value was 9.

And the “herbicidal effect (0-9 scale) STEME” value (Stellaria media [11]; 1000 g/ha)?
The value was 9.

And the “herbicidal effect (0-9 scale) MATIN” value (Matricaria inodora [12]; 250 g/ha)?
Its value is 9.

What about the “herbicidal effect (0-9 scale) MATIN” value (Matricaria inodora [12]; 1000 g/ha) of the same compound?
The value was 9.

And the “herbicidal effect (0-9 scale) TRZAW” value (Triticum aestivum [13]; 250 g/ha)?
Its value is 6.

What about the “herbicidal effect (0-9 scale) TRZAW” value (Triticum aestivum [13]; 1000 g/ha) of the same compound?
Its value is 8.

And the “herbicidal effect (0-9 scale) HORVW” value (Hordeum vulgare [14]; 250 g/ha)?
The value was 8.

And the “herbicidal effect (0-9 scale) HORVW” value (Hordeum vulgare [14]; 1000 g/ha)?
Its value is 8.

What about the “herbicidal effect (0-9 scale) ZEAMX” value (Zea mays [15]; 250 g/ha) of the same compound?
Its value is 9.

What about the “herbicidal effect (0-9 scale) ZEAMX” value (Zea mays [15]; 1000 g/ha) of the same compound?
Its value is 9.

And the “herbicidal effect (0-9 scale) GLXMA” value (Glycine max [16]; 250 g/ha)?
Its value is 9.

And the “herbicidal effect (0-9 scale) GLXMA” value (Glycine max [16]; 1000 g/ha)?
The value was 9.

What about the “herbicidal effect (0-9 scale) SETVI” value (Setaria viridis [17]; 250 g/ha) of the same compound?
Its value is 9.

What about the “herbicidal effect (0-9 scale) SETVI” value (Setaria viridis [17]; 1000 g/ha) of the same compound?
Its value is 9.

And the “herbicidal effect (0-9 scale) ECHCG” value (Echinochloa crus-galli [18]; 250 g/ha)?
The value was 9.

And the “herbicidal effect (0-9 scale) ECHCG” value (Echinochloa crus-galli [18]; 1000 g/ha)?
The value was 9.

And the “herbicidal effect (0-9 scale) ALOMY” value (Alopecurus myosuroides [19]; 250 g/ha)?
Its value is 9.

And the “herbicidal effect (0-9 scale) ALOMY” value (Alopecurus myosuroides [19]; 1000 g/ha)?
Its value is 9.

What about the “herbicidal effect (0-9 scale) IPOHE” value (Ipomoea hederacea [20]; 250 g/ha) of the same compound?
Its value is 9.

And the “herbicidal effect (0-9 scale) IPOHE” value (Ipomoea hederacea [20]; 1000 g/ha)?
The value was 9.

And the “herbicidal effect (0-9 scale) GALAP” value (Galium aparine [21]; 250 g/ha)?
The value was 9.

And the “herbicidal effect (0-9 scale) GALAP” value (Galium aparine [21]; 1000 g/ha)?
The value was 9.

And the “herbicidal effect (0-9 scale) ABUTH” value (Abutilon theophrasti [22]; 250 g/ha)?
The value was 9.

What about the “herbicidal effect (0-9 scale) ABUTH” value (Abutilon theophrasti [22]; 1000 g/ha) of the same compound?
Its value is 9.

What about the “herbicidal effect (0-9 scale) STEME” value (Stellaria media [23]; 250 g/ha) of the same compound?
Its value is 9.

And the “herbicidal effect (0-9 scale) STEME” value (Stellaria media [23]; 1000 g/ha)?
Its value is 9.

And the “herbicidal effect (0-9 scale) MATIN” value (Matricaria inodora [24]; 250 g/ha)?
Its value is 8.

What about the “herbicidal effect (0-9 scale) MATIN” value (Matricaria inodora [24]; 1000 g/ha) of the same compound?
The value was 9.

— US6376426B1, “Herbicidal 3-(heterocycl-1-yl)-uracils” (BASF Aktiengesellschaft, priority 1999, dated 2002)
